This is an account of results in ChEMBL document CHEMBL1141094, “Bisphosphonate inhibition of the exopolyphosphatase activity of the Trypanosoma brucei soluble vacuolar pyrophosphatase” (J Med Chem, 2005).

One assay deals with KB. Kind of assay: Dose to inhibit the growth of human KB carcinoma cell line. Conditions: read-out: ED50 (the source's name). The assay is classed as functional.
Assay [1] deals with T1, Vacuolar-type proton translocating pyrophosphatase 1 (Trypanosoma brucei) (UniProt Q8MTZ4).
T1 sequence (whole entry): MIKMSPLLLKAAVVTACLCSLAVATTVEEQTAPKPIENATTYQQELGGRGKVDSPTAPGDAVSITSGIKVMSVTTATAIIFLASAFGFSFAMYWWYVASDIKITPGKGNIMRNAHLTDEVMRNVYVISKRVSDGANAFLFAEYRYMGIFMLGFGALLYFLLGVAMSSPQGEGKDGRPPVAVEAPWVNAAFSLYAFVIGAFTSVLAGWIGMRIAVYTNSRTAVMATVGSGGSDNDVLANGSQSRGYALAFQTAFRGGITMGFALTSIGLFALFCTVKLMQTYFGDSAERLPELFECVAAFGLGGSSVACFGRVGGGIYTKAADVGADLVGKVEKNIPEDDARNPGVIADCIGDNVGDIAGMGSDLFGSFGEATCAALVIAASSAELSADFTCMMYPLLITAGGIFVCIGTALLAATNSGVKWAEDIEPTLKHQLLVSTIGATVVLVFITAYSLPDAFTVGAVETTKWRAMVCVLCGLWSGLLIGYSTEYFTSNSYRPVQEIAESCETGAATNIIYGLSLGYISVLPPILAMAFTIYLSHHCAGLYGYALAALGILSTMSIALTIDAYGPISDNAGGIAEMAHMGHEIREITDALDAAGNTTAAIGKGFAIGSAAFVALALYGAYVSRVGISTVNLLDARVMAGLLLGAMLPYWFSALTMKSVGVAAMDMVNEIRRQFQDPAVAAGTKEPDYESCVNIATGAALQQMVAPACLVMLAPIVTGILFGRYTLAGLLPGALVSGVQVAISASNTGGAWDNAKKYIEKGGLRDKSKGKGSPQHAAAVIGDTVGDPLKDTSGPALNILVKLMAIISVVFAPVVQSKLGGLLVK
In words: Ratio of ED50 against KB cell line to that of IC50 of TbVSP1. Type of assay: functional, cell-based.

With `CCn1c2ccccc2c2ccc(NC(P(=O)(O)O)P(=O)(O)O)cc21`, the EC50 in the assay on KB amounted to 710 µM. The TI in assay [1] amounted to 19.

`CCCCCCCCCNC(P(=O)(O)O)P(=O)(O)O` [(NONYLAMINO)METHYLENEDIPHOSPHONIC ACID]: in the assay on KB, the EC50 worked out at 919 µM. For the same molecule, the TI in assay [1] was 16.

With `CCCCCCCCC(O)(P(=O)(O)O)P(=O)(O)O`, the EC50 in the assay with KB stood at 64 µM. The TI in assay [1] stood at 1.3.

As to `O=P(O)(O)C(Nc1ccc(-c2ccccc2)cc1)P(=O)(O)O`, in the assay with KB, the EC50 was found to be 495 µM. Besides, the TI in assay [1] is 1.4.

On to `CCc1ccc(NC(P(=O)(O)O)P(=O)(O)O)cc1`, for which, in the assay with KB, the EC50 amounted to 257 µM. In addition, the TI in assay [1] is 21.

As for `CCCCCCCCCC(O)(P(=O)(O)O)P(=O)(O)O`, the EC50 in the assay on KB was 892 µM. Moreover, the TI in assay [1] was 2.5.

For the molecule `CN(CCOc1ccccc1)CCC(O)(P(=O)(O)O)P(=O)(O)O`, the EC50 in the assay on KB was 312 µM. Moreover, the TI in assay [1] was 1.

For the molecule `O=P(O)(O)C(Nc1ccc(Cl)cc1Cl)P(=O)(O)O` [2,4-DICHLOROPHENYLAMINOMETHYLENEBISPHOSPHONIC ACID], the EC50 with KB came to 728 µM. Also, the TI in assay [1] worked out at 169.

As to `CCCCCCCCCCCCCCCC(O)(P(=O)(O)O)P(=O)(O)O`, the EC50 in the assay with KB came to 729 µM. For the same molecule, the TI in assay [1] turned out to be 2.1.

For the molecule `CCCCC(O)(P(=O)(O)O)P(=O)(O)O`, in the assay on KB, the EC50 was 1040 µM. In addition, the TI in assay [1] is 82.

In the case of `Cc1cccc(CC(O)(P(=O)(O)O)P(=O)(O)O)c1`, in the assay with KB, the EC50 stood at 0.9 µM. In assay [1], the TI turned out to be 0.04.

Consider `O=P(O)(O)C(CNc1ccccn1)P(=O)(O)O`, for which the EC50 in the assay with KB amounted to 144 µM. Further, the TI in assay [1] turned out to be 0.4.

In the case of `O=P(O)(O)C(O)(Cc1cccc(C(F)(F)F)c1)P(=O)(O)O`, the EC50 with KB is 109 µM. Also, the TI in assay [1] worked out at 6.3.

For the molecule `CC(C)c1cccc(NC(P(=O)(O)O)P(=O)(O)O)c1`, the EC50 in the assay on KB stood at 771 µM. For the same molecule, the TI in assay [1] came to 79.

Turning to `O=P(O)(O)C(NC1CCCCCC1)P(=O)(O)O` [INCADRONIC ACID], the EC50 with KB was 166 µM. The TI in assay [1] came out at 3.7.

For the molecule `O=[N+]([O-])c1cccc(CC(O)(P(=O)(O)O)P(=O)(O)O)c1`, the EC50 in the assay with KB was found to be 727 µM. The TI in assay [1] worked out at 44.

On to `O=P(O)(O)C(O)(Cc1cccc(F)c1)P(=O)(O)O`, for which the EC50 in the assay on KB worked out at 225 µM. In addition, in assay [1], the TI stood at 20.

As for `O=P(O)(O)C(Nc1cccc(Cc2ccccc2)c1)P(=O)(O)O`, the EC50 with KB is 645 µM. The TI in assay [1] stood at 14.

For `CC(C)(C)c1cc(NC(P(=O)(O)O)P(=O)(O)O)cc(C(C)(C)C)c1`, the EC50 in the assay with KB amounted to 634 µM. Also, the TI in assay [1] was 39.

With `O=P(O)(O)C(O)(Cc1cccc2ccccc12)P(=O)(O)O`, the EC50 with KB amounted to 847 µM. Also, the TI in assay [1] came to 75.

Regarding `O=P(O)(O)C(Nc1cccc(-c2ccccc2)c1)P(=O)(O)O`, in the assay with KB, the EC50 is 749 µM. Moreover, the TI in assay [1] was determined as 174.

Turning to `O=P(O)(O)C(O)(Cc1cccnc1)P(=O)(O)O` [RISEDRONIC ACID], the EC50 in the assay on KB came out at 255 µM. For the same molecule, in assay [1], the TI is 0.4.

Consider `O=P(O)(O)C(O)(Cn1ccnc1)P(=O)(O)O` [ZOLEDRONIC ACID], for which the EC50 in the assay with KB amounted to 63.7 µM. In assay [1], the TI was found to be 0.3.

For `CCCCCC(O)(P(=O)(O)O)P(=O)(O)O`, the EC50 in the assay with KB amounted to 107 µM. In assay [1], the TI turned out to be 10.

In the case of `O=P(O)(O)C(O)(Cc1cccc(Br)c1)P(=O)(O)O`, the EC50 with KB is 228 µM. Also, the TI in assay [1] was found to be 25.

In the case of `O=P(O)(O)C(Nc1ccc2c(c1)CCC2)P(=O)(O)O`, the EC50 in the assay with KB worked out at 976 µM. Further, the TI in assay [1] turned out to be 101.

Regarding `CCc1cccc(NC(P(=O)(O)O)P(=O)(O)O)c1`, the EC50 with KB turned out to be 1020 µM. The TI in assay [1] was found to be 423.

`CC(C)c1cccc(C(C)C)c1NC(P(=O)(O)O)P(=O)(O)O`: the EC50 with KB amounted to 713 µM. Also, in assay [1], the TI is 28.

In the case of `CCCCNC(P(=O)(O)O)P(=O)(O)O` [(BUTYLAMINO)METHYLENEDIPHOSPHONIC ACID], the EC50 in the assay with KB amounted to 212 µM. Besides, in assay [1], the TI turned out to be 4.9.

For the molecule `CCCNC(P(=O)(O)O)P(=O)(O)O` [(PROPYLAMINO)METHYLENEDIPHOSPHONIC ACID], the EC50 with KB amounted to 499 µM. Besides, the TI in assay [1] stood at 10.

For `Nc1ccc(CC(O)(P(=O)(O)O)P(=O)(O)O)cc1`, in the assay with KB, the EC50 worked out at 218 µM. Moreover, the TI in assay [1] was found to be 4.

For `CCCCOc1ccc(NC(P(=O)(O)O)P(=O)(O)O)cc1`, the EC50 in the assay on KB is 210 µM. In addition, the TI in assay [1] was determined as 5.3.

As for `CCc1cccc(NC(P(=O)(O)O)P(=O)(O)O)n1`, the EC50 in the assay on KB came out at 847 µM. Further, the TI in assay [1] turned out to be 15.

With `O=P(O)(O)C(O)(Cc1cccc(Cl)c1)P(=O)(O)O`, in the assay with KB, the EC50 was 283 µM. Besides, the TI in assay [1] worked out at 38.
